According to PMC5216877, “Exploring conformational equilibria of a heterodimeric ABC transporter” (eLife, 2017):
Read-outs that look alike come from different tables or passages of the source. Marks after values point to notes of the source that are not given here.

Legend:
TM287/288 [1] = molecular target: T1, TM287/288 (Thermotoga maritima, UniProt Q9WYC3+Q9WYC4, C28S/C496S/C519S/C558S/C73S); assay: ATPase activity of detergent-purified wildtype TM287/288 (molybdate/malachite green phosphate detection); format: biochemical; settings: for Km: read-out: Km for ATP
BmrCD_E592Q^BmrD = molecular target: T2, BmrCD_E592Q^BmrD (Bacillus subtilis, UniProt O07549+O07550, C154A/C256A/C351A/E592Q); assay: Residual ATPase activity of E-to-Q mutant of BmrCD in detergent; format: biochemical; settings: 25°C
T2 construct: made in house; host or cells: E. coli MC1061
Procedure: (§1) Incubation with buffers containing the same nucleotide concentration without protein served for background subtraction in these assays.

TM287/288 E517Q = assay: DEER two-Gaussian fit of IF/OF populations, E-to-Q mutant of TM287/288; parameters: species or system Thermotoga maritima; settings: estimated errors 10%
Procedure: (§2) All nucleotides and nucleotide analogs used in this study were added at saturating conditions well above their Ki values (Table 2). […] Therefore, the IF/OF fractions detected in the sample reflect the average life time that the nucleotide-bound transporter spends in either conformation. To rank the nucleotides in terms of their ability to support the transition to the OF conformation, we used three representative pairs in the wildtype transporter and the E-to-Q mutant: one in the extracellular region (50^TM287/271^TM287), one in the intracellular region (131^TM288/248^TM288) of the TMDs, and one in the NBDs (460^TM287/363^TM288) for which the distance peaks corresponding to the two states were distinguishable. A two-Gaussian fit of the DEER traces was performed to obtain the area of the corresponding IF and OF distance peaks (Figure 5—source data 1). The rank of nucleotides with respect to increasing fractions of the OF populations (Figure 5A) was: ADP-Mg ≈ AMP-PNP-Mg < ATP-EDTA < ATPγS-Mg < ATP-Mg < ATP-Vi-Mg. The order is similar for the wildtype and E-to-Q mutant transporter. However, the OF state is in general more populated in the E-to-Q mutant, which is best explained by an alteration of the energy profile caused by the mutation. This notion is best appreciated for ATP-EDTA and ATP-Mg, which could trigger an almost complete switch in the molecular ensemble of the E-to-Q mutant (Figure 5B).
(§3) The labeling efficiency of the double cysteine mutants of the transporters solubilized in detergent was measured at 25°C using an X-band Miniscope 400 EPR spectrometer (Magnettech by Freiberg Instrument). Samples were loaded into glass capillaries with the inner diameter of 0.9 mm and spectra were measured with 14 mT field sweep, 0.15 mT modulation amplitude, 2.5 mW microwave power. The calculated spin labeling efficiencies of the twelve mutants ranged between 70–90% (the second integral of the EPR spectra was calculated with the software available at spintoolbox.com). The high degree of labeling is correlated with the 0.3–0.4 modulation depths of all Q-band DEER traces presented. For DEER measurements, 10% v/v D8- glycerol was added prior to snap freezing. The range of final protein concentrations was 12 to 41 µM. 40 µL of sample were loaded in quartz tubes with 3 mm outer diameter. If not stated differently, samples were incubated at 25°C for 10 min (TM287/288 and MsbA) or 15 min (BmrCD) and snap frozen in liquid nitrogen. To study the effect of high physiological temperatures on the frozen dynamics of the transporter, samples were loaded in the quartz tubes, incubated for 3 min at 80°C on a heat block and snap frozen in a mixture of isopentane and liquid nitrogen to minimize the freezing time. […] The nucleotide analogs AMP-PNP-Mg and ATPγS-Mg (2.5 mM) were also prepared in the presence of 2.5 mM MgCl2. In case of ADP-Mg, 2.5 mM ADP and 2.5 mM MgCl2 were added.
(§4) Double electron-electron resonance (DEER) measurements were performed at 50 K on a Bruker ELEXSYS E580Q-AWG (arbitrary wave generator) dedicated pulse Q-band spectrometer equipped with a 150 W TWT amplifier. A 4-pulse DEER sequence with rectangular, non-selective observer and pump pulses of 14 or 16 ns length (depending on the available B1 at the sample) with 100 MHz frequency separation was used ([Polyhach et al., 2012]). Due to the coherent nature of the AWG generated pulses, a four-step phase cycling (0 – π/2 - π – 3/2π) of the pump π pulse was performed to remove unwanted effects of running echoes from the DEER trace. The evaluation of the DEER data was performed using DeerAnalysis2015 ([Jeschke et al., 2006]). The background of the primary DEER traces was corrected using stretched exponential functions with homogeneous dimensions of 1.5 to 3 for different samples. A model-free Tikhonov regularization was used to extract distance distributions from the background corrected form factors. […]

TM287/288 [2] = assay: DEER two-Gaussian fit of IF/OF populations, wildtype TM287/288; parameters: species or system Thermotoga maritima; settings: estimated errors 10%
Procedure: as §2, §3, §4

TM287/288_E517Q^TM288 = assay: Residual ATPase activity of E-to-Q mutant of TM287/288 in detergent; format: biochemical, Thermotoga maritima; settings: E-to-Q mutant of TM287/288, 25°C
Procedure: as §1

BmrCD [3] = molecular target: T3, BmrCD (Bacillus subtilis, UniProt O07549+O07550, C154A/C256A/C351A); assay: ATPase activity of detergent-purified wildtype BmrCD; format: biochemical; settings: 25°C
T3 construct: made in house; host or cells: E. coli MC1061

MsbA [4] = assay: ATPase activity of detergent-purified MsbA; settings: ATP-Mg, 30°C
Spin-labeled TM287/288 = assay: ATPase activity of spin-labeled TM287/288 mutants in detergent; settings: 50°C, relative to internal wildtype control
BmrCD [5] = molecular target: T3, BmrCD; assay: Inhibition of ATPase activity of BmrCD by nucleotide analogs; format: biochemical; settings: BmrCD, 25°C
Procedure: (§5) in which f corresponds to the ATPase activity at the respective inhibitor concentration divided by the ATPase activity in the absence of inhibitor normalized to 100%, y0 corresponds to the residual activity at infinite inhibitor concentration, a corresponds to the maximal degree of inhibition (a+y0=100%) and x corresponds to the inhibitor concentration.
(§6) Ki values were calculated according to the formula Ki=IC50/(1+[S]/Km)
(§7) IC50 and Km values were obtained from data fitting as outlined above.
(§8) Standard errors for the Ki values were calculated by error propagation: σKi = (Km/Km+[S])^2 σIC502+ ([S]IC50/(Km+[S])^2)^2 σKm2
(§9) in which the σIC50 and σKm are standard errors obtained from data fitting in SigmaPlot and σKi is the standard error for Ki .

TM287/288 [6] = molecular target: T1, TM287/288; assay: Inhibition of ATPase activity of TM287/288 by vanadate and nucleotides; format: biochemical; settings: for IC50: 500 µM ATP, read-out: IC50; for Ki: calculated from IC50 and Km, read-out: Ki
Procedure: Nucleotide binding and hydrolysis follow a complex mechanism in heterodimeric ABC exporters, due to the existence of a degenerate and a consensus site in the NBDs. […] Using the relation IC50=Ki(1+[S]/Km), Ki values for the respective nucleotides were determined (Table 2). […] It is well established that ATPγS is slowly hydrolyzed by ATPases, as for example the F1Fo-ATPase ([Turina and Capaldi, 1994]). […] It is reasonable to assume that TM287/288 is as well capable of slow ATPγS hydrolysis. In addition, we tested whether TM287/288 hydrolyzes AMP-PNP. In contrast to ATPγS, hydrolysis of AMP-PNP releases Pi, which can be detected by the molybdate/malachite green method.
as §5, §6, §7, §8, §9

MsbA [7] = system: MsbA; parameters: method as in Moeller et al., 2015; settings: single particle EM; ref Moeller et al., 2015; cited from earlier work
[8] = wildtype TM287/288, ATP-Mg, 25°C, detergent
[9] = wildtype TM287/288, ATP-Mg, 50°C, detergent
[10] = BmrCD E592Q^BmrD, ATP-Mg, detergent
[11] = spin-labeled pair 50^TM287-271^TM287 E517Q
[12] = spin-labeled pair 131^TM288-248^TM288 E517Q
[13] = spin-labeled pair 460^TM287-363^TM288 E517Q
[14] = spin-labeled pair 50^TM287-271^TM287 WT
[15] = spin-labeled pair 131^TM288-248^TM288 WT
[16] = spin-labeled pair 460^TM287-363^TM288 WT
[17] = wildtype BmrCD, ATP-Mg, detergent
[18] = wildtype TM287/288, AMP-PNP-Mg as nucleotide, 25°C [sic], detergent

T3 sequence (O07550 whole entry): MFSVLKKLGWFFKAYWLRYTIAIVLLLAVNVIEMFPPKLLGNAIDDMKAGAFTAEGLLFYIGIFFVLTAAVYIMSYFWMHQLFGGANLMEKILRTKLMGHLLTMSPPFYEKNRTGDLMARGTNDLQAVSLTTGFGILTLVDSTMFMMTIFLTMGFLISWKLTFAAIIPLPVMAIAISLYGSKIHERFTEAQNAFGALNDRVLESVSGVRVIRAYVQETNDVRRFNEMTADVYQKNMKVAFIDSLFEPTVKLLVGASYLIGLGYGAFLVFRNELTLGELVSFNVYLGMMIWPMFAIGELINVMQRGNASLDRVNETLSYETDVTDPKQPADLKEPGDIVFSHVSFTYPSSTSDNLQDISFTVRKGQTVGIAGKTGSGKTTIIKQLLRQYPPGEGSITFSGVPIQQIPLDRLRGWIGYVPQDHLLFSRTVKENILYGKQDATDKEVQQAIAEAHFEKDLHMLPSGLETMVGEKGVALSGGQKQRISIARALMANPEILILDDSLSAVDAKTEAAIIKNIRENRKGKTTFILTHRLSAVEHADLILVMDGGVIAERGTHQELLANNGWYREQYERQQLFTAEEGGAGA
T3 sequence (O07549 whole entry C154A/C256A/C351A): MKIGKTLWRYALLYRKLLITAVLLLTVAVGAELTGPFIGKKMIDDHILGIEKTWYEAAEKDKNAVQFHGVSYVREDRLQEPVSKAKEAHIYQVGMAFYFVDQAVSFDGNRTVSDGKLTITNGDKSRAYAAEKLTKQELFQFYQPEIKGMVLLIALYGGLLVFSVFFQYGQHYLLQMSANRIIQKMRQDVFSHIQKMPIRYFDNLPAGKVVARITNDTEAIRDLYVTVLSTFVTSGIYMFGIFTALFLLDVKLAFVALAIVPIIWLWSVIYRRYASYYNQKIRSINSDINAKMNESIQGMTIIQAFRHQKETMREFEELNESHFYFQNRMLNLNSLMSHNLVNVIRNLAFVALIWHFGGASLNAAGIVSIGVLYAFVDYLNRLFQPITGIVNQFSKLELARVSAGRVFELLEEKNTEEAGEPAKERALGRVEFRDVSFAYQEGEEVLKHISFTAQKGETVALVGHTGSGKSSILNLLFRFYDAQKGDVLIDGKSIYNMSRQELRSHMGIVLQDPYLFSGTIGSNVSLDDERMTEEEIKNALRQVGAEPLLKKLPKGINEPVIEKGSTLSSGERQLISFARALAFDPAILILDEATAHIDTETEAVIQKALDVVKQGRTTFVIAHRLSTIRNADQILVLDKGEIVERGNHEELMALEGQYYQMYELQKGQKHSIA
T2 sequence (O07550 whole entry): as the sequence (O07550 whole entry) above
T2 sequence (O07549 whole entry C154A/C256A/C351A/E592Q): as the sequence (O07549 whole entry C154A/C256A/C351A) above, with E592Q counted along it

`Nc1ncnc2c1ncn2[C@@H]1O[C@H](COP(=O)(O)OP(=O)(O)OP(=O)(O)O)[C@@H](O)[C@H]1O` [ATP] showed a Km (TM287/288 [1]; TM287/288, 25°C) of 3.27 ± 0.42 µM, a Km (TM287/288 [1]; TM287/288, 50°C) of 7.78 ± 1.1 µM and a turnover rate (TM287/288 [1]; wildtype TM287/288, ATP-Mg, 25°C) of 11 ATP min^−1. For the same molecule, the ATPase activity (TM287/288 [1]; [8]) was 86.1 ± 2.5 nmol Pi/min/mg protein, the Turnover per transporter (TM287/288 [1]; [8]) was 11.4 min⁻¹ and the ATPase activity (TM287/288 [1]; [9]) was 2141 ± 67 nmol Pi/min/mg protein. The Turnover per transporter (TM287/288 [1]; [9]) was 284 min⁻¹, the ATPase activity (BmrCD_E592Q^BmrD; [10]) was 0.633 ± 0.053 nmol Pi/min/mg protein and the “ATPase activity, % of wildtype” value (BmrCD_E592Q^BmrD; [10]) was 2.76%. For the same molecule, the Turnover per transporter (BmrCD_E592Q^BmrD; [10]) was 0.0896 min⁻¹, the turnover rate (BmrCD_E592Q^BmrD; BmrCD carrying the E-to-Q mutation) was 0.09 ATP min^−1 and the IF frac (TM287/288 E517Q; [11]) was 5.79%. It also gave an OF frac (TM287/288 E517Q; [11]) of 94.21%, an IF frac (TM287/288 E517Q; [12]) of 24.9% and an OF frac (TM287/288 E517Q; [12]) of 75.1%. The IF frac (TM287/288 E517Q; [13]) was 13%, the OF frac (TM287/288 E517Q; [13]) was 87% and the IF frac (TM287/288 [2]; [14]) was 36.7%. It also gave an OF frac (TM287/288 [2]; [14]) of 63.3%, an IF frac (TM287/288 [2]; [15]) of 56.8% and an OF frac (TM287/288 [2]; [15]) of 43.2%. For the same molecule, the IF frac (TM287/288 [2]; [16]) was 25.7%, the OF frac (TM287/288 [2]; [16]) was 74.3% and the ATPase turnover rate (TM287/288_E517Q^TM288) was 0.022 ATP min^−1. The Km (BmrCD [3]; read-out: Km for ATP, BmrCD) was 343 ± 24 µM, the ATPase activity (BmrCD [3]; [17]) was 22.9 ± 0.5 nmol Pi/min/mg protein and the Turnover per transporter (BmrCD [3]; [17]) was 3.24 min⁻¹. For the same molecule, the “ATPase activity, % of wildtype” value (MsbA [4]; MsbA 561^MsbA) was 90.4%, the Turnover per transporter (MsbA [4]; MsbA 561^MsbA) was 16.6 min⁻¹ and the ATPase activity (MsbA [4]; wildtype MsbA) was 135 ± 9 nmol Pi/min/mg protein. The Turnover per transporter (MsbA [4]; wildtype MsbA) was 18.4 min⁻¹, the “ATPase activity, % of wildtype” value (Spin-labeled TM287/288; spin-labeled 131^TM288/248^TM288, ATP-Mg) was 156* % and the “ATPase activity, % of wildtype” value (Spin-labeled TM287/288; spin-labeled 150^TM287/295^TM288, ATP-Mg) was 112* %. The “ATPase activity, % of wildtype” value (Spin-labeled TM287/288; spin-labeled 231^TM287/304^TM287, ATP-Mg) was 146* %, the “ATPase activity, % of wildtype” value (Spin-labeled TM287/288; spin-labeled 350^TM287/475^TM288, ATP-Mg) was 193* % and the “ATPase activity, % of wildtype” value (Spin-labeled TM287/288; spin-labeled 460^TM287/363^TM288, ATP-Mg) was 212* %.

In the case of `Nc1ncnc2c1ncn2[C@@H]1O[C@H](COP(=O)(O)OP(=O)(O)NP(=O)(O)O)[C@@H](O)[C@H]1O` [AMP-PNP], the “cleavage of AMP-PNP (sensitivity of assay)” value (TM287/288 [1]; wildtype TM287/288, AMP-PNP as nucleotide) is reported as less than 0.01 Pi min^−1, the “ATPase activity (hydrolysis of AMP-PNP)” value (TM287/288 [1]; [18]) is reported as less than 0.1 nmol Pi/min/mg protein and the “ATPase activity, % of wildtype (hydrolysis of AMP-PNP)” value (TM287/288 [1]; [18]) is reported as less than 0.005%. For the same molecule, the “Turnover per transporter (hydrolysis of AMP-PNP)” value (TM287/288 [1]; [18]) was less than 0.01 min⁻¹, the IC50 (BmrCD [5]; 2500 µM ATP, read-out: IC50) was 174 ± 24 µM and the Ki (BmrCD [5]; calculated from IC50 and Km, read-out: Ki) was 21 ± 3.2 µM. The IF frac (TM287/288 E517Q; [11]) was 64.9%, the OF frac (TM287/288 E517Q; [11]) was 35.1% and the IF frac (TM287/288 E517Q; [12]) was 100%. The OF frac (TM287/288 E517Q; [12]) was 0%, the IF frac (TM287/288 E517Q; [13]) was 65.8% and the OF frac (TM287/288 E517Q; [13]) was 34.2%. For the same molecule, the IF frac (TM287/288 [2]; [14]) was 85.4%, the OF frac (TM287/288 [2]; [14]) was 14.6% and the IF frac (TM287/288 [2]; [15]) was 100%. The OF frac (TM287/288 [2]; [15]) was 0%, the IF frac (TM287/288 [2]; [16]) was 90.7% and the OF frac (TM287/288 [2]; [16]) was 9.3%. For the same molecule, the IC50 (TM287/288 [6]; TM287/288, 25°C) was 179 ± 75 µM, the Ki (TM287/288 [6]; TM287/288, 25°C) was 1.17 ± 0.51 µM and the IC50 (TM287/288 [6]; TM287/288, 50°C) was 16.1 ± 1.6 µM. For the same molecule, the Ki (TM287/288 [6]; TM287/288, 50°C) was 0.246 ± 0.042 µM and the “fraction of outward-facing MsbA” value (MsbA [7]) was 41%.
